This is an account of results in patent US20250281497A1, “FUSED AMINO PYRIMIDINE COMPOUNDS FOR TREATMENT OF SEIZURE DISORDERS” (Ovid Therapeutics Inc., priority 2024, published 2025).

Assay [1] concerns panel of 144 protein kinases. Description: SelectScreen panel of 144 protein kinases. The class given is biochemical. Conditions: includes PKC isoforms, OSR1, SPAK, WNK. How it is done: Aliquots of HEK-293 cells expressing KCC2 were exposed to 30 μM SSA, heated from 37-55° C. The remaining level of soluble native KCC2 at each temperature was measured by immunoblotting and normalized to the level seen at 37° C. which was given a value of 1. […] This panel included protein kinase C isoforms, OSR1, SPAK (STK39) and with-no-lysine kinases (WNK), all of which phosphorylate KCC2 on multiple residues to indirectly modify its activity (Kahle et al., 2013, supra; Smalley et al., 2020, supra).

A further assay deals with brain slices. Description: In vitro seizure assay, brain slices in 0-Mg ACSF, field recording in entorhinal cortex. Also noted: species or system mice. As to conditions: Compound A 1 μM. The source says:
In vitro seizure assays. […] Slices were then transferred to a Warner Instruments recording chamber and electrodes of 0.5-1 mohm were inserted into layer IIII of the medial entorhinal cortex, several cell layers deep. […] The field recordings were then employed to monitor the development of seizure-like events (SLEs) and their transition to late recurrent discharges (LRDs) which are believed to be analogous to the development of status epilepticus (SE) (Kelley et al., 2016, supra; Moore et al., 2018, supra).

Assay [2] concerns PTZ induced motor seizures. Description: Pentylenetetrazol (PTZ) induced convulsions. In kind it is in vivo, mice. As to conditions: 12.5 mg/kg IV pretreatment.
Another assay concerns KA induced SE. In words: Kainic acid (KA) induced SE, EEG recording, pretreatment. In kind it is in vivo, mice. An excerpt:
This model was chosen due to the similarities with patients undergoing SE, as KA-induced seizures become refractory to benzodiazepines (BDZs) within minutes (Betjemann and Lowenstein, Lancet Neurol 14, 615-624 (2015); Crawshaw and Cock, (2020a) [Seizure: Eur. J. Epilep. 75 (2020) 145-152] Seizure 80, 282; Lee et at, 2022, supra; Reddy and Kuruba, Int J Mol Sci 14, 18284-18318 (2013)).
EEG recordings and analysis. WT C57Bl/6J adult male mice (12 weeks) were anesthetized with isofluorane and implanted with EEG/EMG electrodes and allowed to recover for 7 days prior to experimentation. […] 2h following KA administration mice were injected with a saturating concentration of diazepam (DZ) 10 mg/kg (IP) and recordings were extended for a further 60 min. […] LabChart 8 software was used for data analysis. Epileptiform activity was identified by changes in the amplitude of electrographic activity characterized by consistent changes in the power of the Fast Fourier transform (FFT) of the EEG and abnormal activity characterized by periods of rhythmic spiking lasting longer than 30s (Moore et al., 2017, supra; Silayeva et al., 2015, supra; Sivakumaran et al., J. Neurosci. 35, 8291-8296 (2015)).
To provide quantitative insights on the effects of KA, raw EEG recordings were subject to Fast-Fourier transformation (8K FFT size, Hann (cosine-bell), 87.50% window overlap) for frequencies between 0-100 Hz 2h after KA injection (Lee et at, 2022, supra).
30 or 60 min later mice were injected with KA (20 mg/kg) and 2h later with DZ as detailed above.

`C[C@@H]1CN(c2nc3c(c(Nc4ccc(C5CCCCC5)cc4)n2)COC3)CCO1` [Compound A, (R)—N-(4-cyclohexylphenyl)-2-(2-methylmorpholino)-5,7-dihydrofuro[3,4-d]pyrimidin-4-amine]: the “activity of panel of 144 protein kinases” value in assay [1] is reported as “did not modify the activity of this kinase panel”. Further, in the assay on brain slices (vehicle=10.5±2.6), the “time to first seizure-like event (SLE)” value was 11.3 ± 3.3 min. Further, the “time to late recurrent discharges (LRDs)” value in the assay with brain slices (vehicle=12.4±4.1) was 28.4 ± 6.4 min. Further, the “dose of PTZ required to induce forelimb clonus” value in assay [2] (Control=51.5±3.1) came to 56.3 ± 3.3 mg/kg. Besides, the “dose of PTZ required to induce hindlimb clonus” value in assay [2] (Control=84.5±5.1) is 137.4 ± 7.5 mg/kg. Moreover, in the assay with KA induced SE (10 μM or 20 μM, 30 or 60 min before KA 20 mg/kg, relative to vehicle), the “seizure parameters after injection directly into the hippocampus” value is “increased the latency to the 1st seizure, to SE, and reduced the percentage of time in epileptiform activity”. The “latency to the first seizure” value with KA induced SE (50 mg/kg SC 2h before 20 mg/kg KA IP, vehicle=10.2±2.5) was found to be 14.4 ± 2.9 min. Also, the “latency to SE” value with KA induced SE (50 mg/kg SC 2h before KA, vehicle=38.3±3.4) was 54.5 ± 6.9 min. The “time spent in epileptiform activity” value in the assay on KA induced SE (50 mg/kg SC 2h before KA, vehicle=85±5.4) is reported as 62.5±8.4%. Moreover, the “total EEG power post DZ” value in the assay on KA induced SE (mice pretreated with Compound A, then DZ 10 mg/kg IP 2h after KA) is recorded as 2.7±3.2×10^−7 μV^2. The “total EEG power 2h after KA (pre DZ)” value in the assay with KA induced SE (pretreated with Compound A, vehicle 4.2±2.4×10^−6) was 6.9±3.2×10^−7 μV^2. Further, in the assay on KA induced SE (pretreatment, 4h later), the “development of refractory status epilepticus (RSE)” value was “prevented the development of refractory status epilepticus (RSE)”.
